Assay results: patent US4530907A, “Perfusion-cultivation of animal cells and equipment therefor” (priority 1981, dated 1985)
Where two headings read alike, the source gives them in different places.

System: neuroblastoma cells
Description: The test system in question is based on cultivation of neuroblastoma cells C1300, 41A3 and the effect on these cells measured as general biological cell changes or biochemical changes, as a function of the content of toxic substances in the substrate. The cell line used is suitable for such measurements since its biology and biochemistry is well documented.
Examples of other parameters which can be used are ATP (adenosine triphosphate) content and LDH (lactate dehydrogenase) activity in the perfusion liquid. These function as indicators of membrane leakage and their concentration can be expected to increase after exposure. Another way of measuring membrane leakage is to study the outflow of an isotope-marked marker (see Example 5). It is also possible to measure the absorption of trypan blue in dead cells with the help of light absorption (see Example 4 and FIG. 4).
Determining LD50 values by means of cell death, measured as absorption of trypan blue
The accumulation of trypan blue (a stain which is taken up in dead cells) can be calculated with the help of light-absorption measurements.

[1] = trypan blue absorption by light absorption, statement for all listed substances together

SMILES | cell death in neuroblastoma cells, correlation with the LD50 values obtained from animal experiments [1] | cell death in neuroblastoma cells, correlation with the LD50 values obtained from animal experiments
[CH3][Hg][Cl] [CH3 HgCl] | correlates well | 
[Cl][Cd][Cl] [CdCl2] | correlates well | 
[Cl][Hg][Cl] [HgCl2] | correlates well | 
[K+].[K+].[O]=[Cr](=[O])([O-])[O][Cr](=[O])(=[O])[O-] [K2 Cr2 O7] | correlates well | 
CC(C)=O [acetone] | correlates well | 
c1ccccc1 [benzene] |  | correlates well
C1COCCO1 [dioxane] | correlates well | 
CCCCO [n-butanol] | correlates well | 
CCCO [n-propanol] | correlates well | 
Clc1ccc(C(c2ccc(Cl)cc2)C(Cl)(Cl)Cl)cc1 [pp-DDT] | correlates well | 
